Results reported in ChEMBL document CHEMBL1255545, “Synthesis and evaluation of 1,2,4-triazolo[1,5-c]pyrimidine derivatives as A2A receptor-selective antagonists” (Bioorg Med Chem Lett, 2010).

Key:
Assay type in all cases: cell-based
[1] = target: T1, Adenosine receptor A1 (Homo sapiens) (UniProt P30542); assay: Displacement of [3H]CCPA from human adenosine A1 receptor expressed in CHO cells at 10 uM
T1 sequence (whole entry): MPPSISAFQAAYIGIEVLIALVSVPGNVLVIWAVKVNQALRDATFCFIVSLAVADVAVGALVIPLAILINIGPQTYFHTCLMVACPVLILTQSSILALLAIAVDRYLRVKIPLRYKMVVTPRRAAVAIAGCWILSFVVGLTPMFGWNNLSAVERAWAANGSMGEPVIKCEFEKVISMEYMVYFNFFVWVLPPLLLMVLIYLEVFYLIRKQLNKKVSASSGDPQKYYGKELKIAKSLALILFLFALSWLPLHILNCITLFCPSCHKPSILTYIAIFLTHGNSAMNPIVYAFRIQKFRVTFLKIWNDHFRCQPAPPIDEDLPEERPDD

[2] = target: T2, Adenosine receptor A3 (Homo sapiens) (UniProt P0DMS8); assay: Displacement of [125I]I-AB-MECA from human adenosine A3 receptor expressed in CHO cells at 10 uM
T2 sequence (whole entry): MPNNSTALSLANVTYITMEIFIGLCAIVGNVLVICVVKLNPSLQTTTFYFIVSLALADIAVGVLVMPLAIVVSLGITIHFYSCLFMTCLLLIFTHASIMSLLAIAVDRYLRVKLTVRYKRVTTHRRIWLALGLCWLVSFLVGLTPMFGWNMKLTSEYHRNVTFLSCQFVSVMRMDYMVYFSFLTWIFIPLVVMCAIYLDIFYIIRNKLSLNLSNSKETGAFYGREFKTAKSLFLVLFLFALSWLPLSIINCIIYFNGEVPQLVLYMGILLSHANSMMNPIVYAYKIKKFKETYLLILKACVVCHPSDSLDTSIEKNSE

Adenosine receptor A2a = Adenosine receptor A2a (Homo sapiens, UniProt P29274); assay: Displacement of [3H]CGS21680 from human adenosine A2A receptor expressed in HEK293 cells at 10 uM
Adenosine receptor A3 = target: T3, Adenosine receptor A3 (Homo sapiens, UniProt P0DMS8); assay: Displacement of [125I]I-AB-MECA from human adenosine A3 receptor expressed in CHO cells
T3 sequence (P0DMS8 whole entry): T2 sequence (whole entry)

Chain of Adenosine receptor A2a (P29274 whole entry): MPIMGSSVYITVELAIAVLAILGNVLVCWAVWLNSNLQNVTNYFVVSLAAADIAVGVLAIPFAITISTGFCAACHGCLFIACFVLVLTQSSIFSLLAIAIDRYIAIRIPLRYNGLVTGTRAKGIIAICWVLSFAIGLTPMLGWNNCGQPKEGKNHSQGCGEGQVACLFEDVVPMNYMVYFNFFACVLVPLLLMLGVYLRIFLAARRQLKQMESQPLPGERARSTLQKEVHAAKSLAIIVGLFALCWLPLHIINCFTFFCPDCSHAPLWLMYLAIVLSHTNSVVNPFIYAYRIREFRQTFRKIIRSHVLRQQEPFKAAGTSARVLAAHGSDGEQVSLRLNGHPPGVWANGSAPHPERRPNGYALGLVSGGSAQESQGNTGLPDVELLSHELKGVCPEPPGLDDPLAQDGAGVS

Row | inhibition [1] | inhibition [2] | Ki (Adenosine receptor A2a) | Ki (Adenosine receptor A3) | Structure (SMILES)
1 | 27.8% | 62.4% | 45.7 nM | – | CS(=O)(=O)OCCOc1ccc(CCCn2ncc3c2nc(N)n2nc(-c4ccco4)nc32)cc1
2 | 32.8% | 62.5% | 9 nM | – | C=CCOc1ccc(CCCn2ncc3c2nc(N)n2nc(-c4ccco4)nc32)cc1
3 | 16.8% | 41.9% | 22.1 nM | – | CCC(C)Oc1ccc(CCCn2ncc3c2nc(N)n2nc(-c4ccco4)nc32)cc1 (stereo not drawn)
4 | 25.5% | 44.8% | 14.4 nM | – | C=CCCOc1ccc(CCCn2ncc3c2nc(N)n2nc(-c4ccco4)nc32)cc1
5 | 44.3% | 34.2% | 48.3 nM | – | Nc1nc2c(cnn2CCCc2ccc(O)cc2)c2nc(-c3ccco3)nn12
6 | 6.9% | 18.2% | 78.9 nM | – | Nc1nc2c(cnn2CCCc2ccc(OCCc3ccccc3)cc2)c2nc(-c3ccco3)nn12
7 | 47.9% | 57.8% | 23.9 nM | – | Nc1nc2c(cnn2CCCc2ccc(OCCO)cc2)c2nc(-c3ccco3)nn12
8 | 42.7% | 59.6% | 12.4 nM | – | Nc1nc2c(cnn2CCCc2ccc(OCCF)cc2)c2nc(-c3ccco3)nn12
9 | 38.4% | 67.4% | – | – | COc1ccc(CCCn2ncc3c2nc(N)n2nc(-c4ccco4)nc32)cc1
10 | 35% | 72.8% | 13.3 nM | – | CC(C)Oc1ccc(CCCn2ncc3c2nc(N)n2nc(-c4ccco4)nc32)cc1
11 | 7.3% | 17.8% | 308 nM | – | Nc1nc2c(cnn2CCCc2ccc(O/C=C/c3ccccc3)cc2)c2nc(-c3ccco3)nn12
12 | 4.8% | – | 43.9 nM | 4940 nM | CCOc1ccc(CCCn2ncc3c2nc(N)n2nc(-c4ccco4)nc32)cc1
13 | 17.9% | 36.5% | 11.7 nM | – | CCCOc1ccc(CCCn2ncc3c2nc(N)n2nc(-c4ccco4)nc32)cc1
